Data: PubChem BioAssay (NCI)
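Where inhibition never reached the appropriate level, the endpoint shown equals the highest concentration tested. Otherwise, values were interpolated linearly from a five-concentration, 48-hour dose response in 96-well plates. TGI: total growth inhibition.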

Tests used:
Test in all cases: NCI tumour cell line growth inhibition, 48 h
XF 498 CNS = tested on: XF 498 CNS
SNB-78 CNS = tested on: SNB-78 CNS
KM20L2 colon = tested on: KM20L2 colon
LXFL 529 NSCLC = tested on: LXFL 529 NSCLC
DLD-1 colon = tested on: DLD-1 colon
P388/ADR leukemia = tested on: P388/ADR leukemia
P388 leukemia = tested on: P388 leukemia
M19-MEL melanoma = tested on: M19-MEL melanoma
SN12K1 renal = tested on: SN12K1 renal
HOP-18 NSCLC = tested on: HOP-18 NSCLC
RXF-631 renal = tested on: RXF-631 renal

`O=C1C=C(N2CC2)C(=O)C=C1N1CC1` showed a TGI (XF 498 CNS) of 0.538 µM, a TGI (SNB-78 CNS) of 1.8 µM and a TGI (KM20L2 colon) of 1.74 µM. For the same compound, the TGI (LXFL 529 NSCLC) was 0.527 µM and the TGI (DLD-1 colon) was 1.5 µM.
`COc1cccc2c1C(=O)c1c(O)c3c(c(O)c1C2=O)C[C@@](O)(/C(C)=N/NC(=O)c1ccccc1)C[C@@H]3OC1CC(N)C(O)C(C)O1` (stereo not given in full) was tested, and the TGI (XF 498 CNS) was 0.242 µM, the TGI (P388/ADR leukemia) was 35.6 µM and the TGI (SNB-78 CNS) was 6.1 µM. For the same compound, the TGI (KM20L2 colon) was 9.23 µM, the TGI (P388 leukemia) was 1.61 µM and the TGI (M19-MEL melanoma) was 2.99 µM. The TGI (SN12K1 renal) was 1.88 µM, the TGI (DLD-1 colon) was 17.6 µM and the TGI (HOP-18 NSCLC) was 6.61 µM.
For `NC(Cc1c[nH]c2ccccc12)C(=O)O` (stereo not given), the TGI (P388/ADR leukemia) was over 300 µM, the TGI (SNB-78 CNS) was over 300 µM and the TGI (KM20L2 colon) was over 300 µM. It also gave a TGI (P388 leukemia) of over 300 µM, a TGI (M19-MEL melanoma) of over 300 µM and a TGI (SN12K1 renal) of over 300 µM. For the same compound, the TGI (DLD-1 colon) was over 300 µM and the TGI (HOP-18 NSCLC) was 196 µM.
With `Nc1nc(N)c2nc(-c3ccco3)cnc2n1` the TGI (XF 498 CNS) was over 100 µM, the TGI (RXF-631 renal) was over 100 µM and the TGI (SNB-78 CNS) was over 100 µM. The TGI (KM20L2 colon) was over 100 µM, the TGI (M19-MEL melanoma) was over 100 µM and the TGI (LXFL 529 NSCLC) was over 100 µM. For the same compound, the TGI (DLD-1 colon) was over 100 µM and the TGI (HOP-18 NSCLC) was over 100 µM.
